Measured values published in ChEMBL document CHEMBL1129438, “Neighboring group catalysis in the design of nucleotide prodrugs” (J Med Chem, 1996).

Key:
[1] = Half life (t 1/2) during base-catalyzed hydrolysis; format: ADME
[2] = Half life (t 1/2) during hydrolysis catalyzed by brain extract; format: ADME, tissue-based
[3] = Half life (t 1/2) during hydrolysis caused by human serum; format: ADME, organism-based
[4] = Half life (t 1/2) during pig liver esterase-catalyzed hydrolysis; format: ADME, organism-based, Sus scrofa

| Compound | half-life [1] [h] | half-life [2] [h] | half-life [3] [h] | half-life [4] [h] |
| --- | --- | --- | --- | --- |
| COC(=O)c1ccccc1OP(=O)(OC[C@H]1O[C@@H](n2ccc(=O)[nH]c2=O)C[C@@H]1N=[N+]=[N-])OC[C@H]1O[C@@H](n2ccc(=O)[nH]c2=O)C[C@@H]1N=[N+]=[N-] | 1.1 | 4 | 4 | 20 |
| [N-]=[N+]=N[C@H]1C[C@H](n2ccc(=O)[nH]c2=O)O[C@@H]1COP(=O)(OC[C@H]1O[C@@H](n2ccc(=O)[nH]c2=O)C[C@@H]1N=[N+]=[N-])Oc1ccccc1 | 17 | 17 | 17 | 17 |
| [N-]=[N+]=N[C@H]1C[C@H](n2ccc(=O)[nH]c2=O)O[C@@H]1COP(=O)(OC[C@H]1O[C@@H](n2ccc(=O)[nH]c2=O)C[C@@H]1N=[N+]=[N-])Oc1ccccc1C(=O)Oc1ccccc1 | 1.1 | 5 | 4 | 1 |
| O=C(OC1O[C@H](CO)[C@@H](O)[C@H](O)[C@H]1O)c1ccccc1OP(=O)(OC[C@@H]1CC[C@H](n2ccc(=O)[nH]c2=O)O1)OC[C@@H]1CC[C@H](n2ccc(=O)[nH]c2=O)O1 (stereo partly specified) | 17 | > 72 | 48 | > 48 |
